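Compound exposure: 48 hours, 5 concentrations, 96-well plates. GI50 is the concentration that inhibits growth by half. At the TGI there is no net growth.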
Columns and labels:
Assay in all cases: NCI-60 cell line screen, 48 h
NCI/ADR-RES ovarian = tested on: NCI/ADR-RES ovarian
CAKI-1 renal = tested on: CAKI-1 renal
OVCAR-5 ovarian = tested on: OVCAR-5 ovarian
COLO 205 colon = tested on: COLO 205 colon
HOP-62 NSCLC = tested on: HOP-62 NSCLC
OVCAR-3 ovarian = tested on: OVCAR-3 ovarian
U251 CNS = tested on: U251 CNS
SK-OV-3 ovarian = tested on: SK-OV-3 ovarian
SNB-19 CNS = tested on: SNB-19 CNS
CCRF-CEM leukemia = tested on: CCRF-CEM leukemia

Compound	TGI (NCI/ADR-RES ovarian)	TGI (CAKI-1 renal)	TGI (OVCAR-5 ovarian)	TGI (COLO 205 colon)	TGI (HOP-62 NSCLC)	TGI (OVCAR-3 ovarian)	TGI (U251 CNS)	TGI (SK-OV-3 ovarian)	TGI (SNB-19 CNS)	GI50 (NCI/ADR-RES ovarian)	GI50 (CAKI-1 renal)	GI50 (OVCAR-5 ovarian)	GI50 (COLO 205 colon)	GI50 (HOP-62 NSCLC)	GI50 (OVCAR-3 ovarian)	GI50 (U251 CNS)	GI50 (CCRF-CEM leukemia)	TGI (CCRF-CEM leukemia)	GI50 (SK-OV-3 ovarian)	GI50 (SNB-19 CNS)
O=C1C2CC(Cl)C(SSC3CC4C(=O)N(SC(Cl)(Cl)C(Cl)Cl)C(=O)C4CC3Cl)CC2C(=O)N1SC(Cl)(Cl)C(Cl)Cl (stereo not drawn)	6.05 µM	6.7 µM	66.3 µM	4.87 µM	8.64 µM	5.07 µM	3.75 µM	8.53 µM	12.7 µM											
NC(N)=NC(CC(=O)O)c1ccccc1 (stereo not drawn)	> 100 µM	> 100 µM	> 100 µM	> 100 µM	> 100 µM	> 100 µM	> 100 µM	> 100 µM	> 100 µM											
COc1ccccc1C(=O)/C=C/c1cc2cccc(OC)c2[nH]c1=O	13.6 µM	1.54 µM	2.89 µM	1.43 µM	4.9 µM	0.6 µM	1.5 µM	14.9 µM	1.47 µM	0.0194 µM	0.0241 µM	0.321 µM	0.0481 µM	0.0668 µM	0.0343 µM	0.0319 µM	< 0.0182 µM	> 37.9 µM	0.554 µM	0.0332 µM
CCCCCCCCCCCCc1ccc(C(=O)/C=C/C(=O)O)cc1	24.5 µM	3.58 µM	23.1 µM	3.84 µM	29.9 µM	3.47 µM	18.9 µM	30.4 µM	22 µM	7.78 µM	1.76 µM	10.3 µM	1.83 µM	14 µM	1.91 µM	5.63 µM	0.547 µM	5.29 µM	16.2 µM	7.07 µM
O=C1CC(=O)N(C2CCCCC2)C(=O)N1c1ccccc1S(=O)(=O)Oc1ccccc1	> 100 µM	> 100 µM	> 100 µM	> 100 µM	> 100 µM	> 100 µM	> 100 µM	> 100 µM	> 100 µM									54.5 µM		
O=[N+]([O-])c1ccc(Sc2ncccn2)c([N+](=O)[O-])c1	20.1 µM	3.59 µM	19.8 µM	10.8 µM	30.1 µM	10.3 µM	15.3 µM	25.2 µM	23.1 µM	6.55 µM	1.36 µM	7.35 µM	3.11 µM	15.1 µM	3.38 µM	4.46 µM	2.04 µM	5.5 µM	12.5 µM	10.8 µM
OB([O][Hg][c]1ccccc1)[O][Hg][c]1ccccc1	4.45 µM	2.01 µM	3.33 µM	1.46 µM	3.39 µM	0.213 µM	1.89 µM	2.97 µM	2.84 µM	1.69 µM	0.639 µM	1.88 µM	0.502 µM	1.04 µM	0.0812 µM	0.507 µM			1.6 µM	1.46 µM
COc1cc[nH]c1/C=C1\C(=O)Nc2ccc(F)c(C#C[C@@H](O)[C@@H](N)[C@@H](C)O)c21	25 µM	5.73 µM	5.14 µM	0.743 µM	2 µM	2.26 µM	2.61 µM	9.65 µM	5.51 µM	6.65 µM	0.415 µM	0.673 µM	0.303 µM	0.647 µM	0.685 µM	0.445 µM	0.709 µM	2.35 µM	0.744 µM	0.909 µM
COc1cc2c(cc1OC)C(=O)C(Br)CC2 (stereo not drawn)	37.3 µM	12.4 µM	18.2 µM	3.72 µM	18.5 µM	6.88 µM	25.7 µM	13.7 µM	21.3 µM	4.5 µM	3.56 µM	5.47 µM	2.03 µM	6.09 µM	2.5 µM	12.8 µM	2.82 µM	11.9 µM	4.55 µM	8.96 µM
O=C1C=C[C@]2(C[C@@H](c3cccc(C(F)(F)F)c3)O[C@@H](c3cccc(C(F)(F)F)c3)O2)O1	6.62 µM	12.4 µM	26.1 µM	5.51 µM	18.2 µM	3.71 µM	12.9 µM	28.1 µM	16.1 µM	1.9 µM	2.95 µM	7.76 µM	1.88 µM	5.08 µM	1.6 µM	2.58 µM	2.48 µM	13.1 µM	14.4 µM	3.13 µM
O=S(=O)(c1ccc(NC(=S)N/N=C/c2ccccc2O)cc1)N1CCCCC1	0.586 µM	0.671 µM	18.3 µM	36.5 µM	4.45 µM	6.34 µM	16.8 µM	37.9 µM	> 100 µM									1.66 µM		
O=C(c1cccs1)c1c(C(F)(F)F)n([O-])c2ccc(C(F)(F)F)cc2[n+]1=O	0.573 µM	0.337 µM	0.494 µM	0.909 µM	0.767 µM	0.744 µM	0.322 µM	2.56 µM	2.53 µM	0.219 µM	0.18 µM	0.205 µM	0.328 µM	0.298 µM	0.258 µM	0.179 µM	0.224 µM	2.11 µM	1.24 µM	1.11 µM
O=c1c(Cl)nnc2sc3ccccc3n12	41.9 µM	6.9 µM	> 100 µM	> 100 µM	> 100 µM	> 100 µM	85.3 µM	> 100 µM	> 100 µM	13.3 µM	0.813 µM	54.1 µM	47 µM	67.4 µM	34.4 µM	30.9 µM			59.9 µM	77.5 µM
CC12OC(C(=O)C13CC3)C1C(=O)c3ccccc3C(=O)C12 (stereo not drawn)	77 µM	38.5 µM	> 100 µM	> 100 µM	80 µM			74.8 µM	> 100 µM	24.5 µM	21.6 µM	47.4 µM	89 µM	27.8 µM			13.9 µM	42.5 µM	25.3 µM	36.4 µM
COc1cc(-c2cc(C(=O)N3CCN(C(=O)c4ccccc4NCc4ccco4)CC3)nc3cc(-c4ccccc4)nn23)cc(OC)c1OC	> 31.8 µM	> 100 µM	> 100 µM	8.66 µM	> 100 µM	6.27 µM	> 100 µM	18.8 µM	> 100 µM	1.2 µM	1.34 µM	9.66 µM	1.48 µM	3.03 µM	1.47 µM	3.85 µM	4.57 µM	> 100 µM	2.58 µM	7.87 µM
Cn1cc(-c2ccc(=O)n(Cc3cccc(-c4ncc(OCCN5CCOCC5)cn4)c3)n2)cn1	> 100 µM	> 100 µM	> 100 µM	> 100 µM	> 100 µM	> 100 µM	> 100 µM	> 100 µM	> 100 µM	37.5 µM	> 79.7 µM	> 100 µM	53.7 µM	> 62.7 µM	58 µM	92.1 µM	82.1 µM	> 100 µM	> 100 µM	> 87.4 µM
CC(=O)c1ccc(Nc2cc(-n3ccnc3)nc3ccccc23)cc1	> 100 µM	7.57 µM	> 100 µM	> 100 µM	29.4 µM		> 100 µM	> 100 µM	> 100 µM	> 100 µM	1.71 µM	> 100 µM	> 100 µM	4.26 µM		32.6 µM			> 100 µM	> 100 µM
O=C1c2ccccc2-c2c1c1ccccc1c(=O)n2CCO	> 100 µM	> 51.7 µM	> 100 µM	> 100 µM	32.5 µM	> 100 µM	> 100 µM	> 100 µM	> 100 µM									> 100 µM		
COC(=O)Nc1nc2ccc(C(=O)c3ccc[nH]3)cc2[nH]1	9.01 µM	> 100 µM	> 100 µM	> 100 µM	> 95.9 µM		> 100 µM	> 63 µM	> 54.7 µM									12.7 µM		
C1CCC([PH+](C2CCCCC2)C2CCCCC2[PH+](C2CCCCC2)C2CCCCC2)CC1.[Au].[CH-]1CCCCC1C1CCCC[N-]1 (stereo not drawn)	> 100 µM		1.79 µM		1.89 µM	1.1 µM		1.14 µM		2.97 µM		0.377 µM		0.314 µM	0.286 µM		0.426 µM	> 100 µM	0.275 µM	
C1=CN2C[n+]3cccc(OCc4ccccc4)c3N=C2C(OCc2ccccc2)=C1	> 100 µM	73.1 µM	> 100 µM	18 µM	> 100 µM	25 µM	> 100 µM	> 100 µM	27.2 µM											
Cc1ccc(-c2c(C#N)c(N)nc(N3CCOCC3)c2C#N)o1	> 100 µM		> 100 µM		> 100 µM					33.6 µM		27.4 µM		26.4 µM			36.2 µM	> 100 µM		
COc1cc(C(=O)O)c([N+](=O)[O-])c(OC)c1OC	> 100 µM	> 100 µM	> 100 µM	> 100 µM	> 100 µM	> 100 µM	> 100 µM	> 100 µM	> 100 µM											
